The source of these data is US20220133894A1, “BISPHOSPHONATE-LINKED COMPOUNDS” (OREGON HEALTH & SCIENCE UNIVERSITY, priority 2019, published 2022).

Series [1] relates to prostate specific antigen (PSA). The series can be described thus: PSA expression by qRT/PCR in VCaP cells. The format is cell-based, human. The method, then: Cells were cultured in media depleted of androgen and after a washout of 72 hrs were treated with the synthetic androgen R1881, KBU2046, enzalutamide and/or vehicle (control), and resultant effects upon induction of the androgen-responsive gene, prostate specific antigen (PSA) were measured (FIG. 3A).
LNCaP or VCaP cells cultured in hormone free media were treated with R1881 (R), KBU2046 (46) and/or enzalutamide (E). (FIGS. 3A and 3B) Effects on AR-responsive gene expression. PSA expression was measured by qRT/PCR, normalized to GAPDH and expressed as a percent of control cells (N=3 replicates); * denotes P<0.05 for groups separated by bar. (FIGS. 3C and 3D) Effects on cell growth. Three day growth assays were performed. Data are the number of viable cells, expressed as % of control (N=3 replicates); * P<0.05 compared to control. (E) Effects on AR activation. Western blots of nuclear (N) and cytoplasmic (C) preparations of cell extracts were probed for AR, laminin 1 or α-tubulin. (FIGS. 3F and 3G) Effects on tumor outgrowth after androgen deprivation therapy. LNCaP/AR-luc cells were implanted subcutaneously (N=6 mice/cohort) or orthotopic (N=15 mice/cohort were implanted; N=5 yielded tumors) into castrate mice, treatment with KBU2046 began as noted, and weekly IVIS imaging performed. Data are tumor size, expressed as luminescence intensity. All data are expressed as mean±SEM.
RNA was isolated and qRT/PCR performed as previously described by us (Ding et al., J Biomol Tech 18, 321-330 (2007)). Resultant data were analyzed using the 2^−ΔΔt method (Livak et al., Methods 25, 402-408 (2001)), normalized to GAPDH, for the following primer/probe sets (ABI) PSA (Hs02576345_m1) and GAPDH (Hs99999905_m1). Assays were performed in triplicate, and were repeated.

Another series relates to RAW 267.4 cells. The series can be described thus: ApoTox-Glo Triplex assay in RANKL treated osteoclast cells. As to conditions: 72 hours after treatment. The format is cell-based, mouse. The method, then:
FIG. 5 represents the improved efficacy seen with KBU2046 combined with ZA. In FIG. 5A bone degradation was tested using osteo assays performed as in FIG. 4D. Cells were treated with KBU2046 (46), ZA at 2, 10 or 20 μM, with the indicated combinations, or vehicle (control; CO). Data are the mean±SEM (N=3 replicates); * denotes P<0.05 compared to control, or between conditions denoted by bars. FIG. 5B provides representative photomicrographs of osteo assay wells. Black color denotes presence of bone matrix; RL: RANKL. (FIGS. 5C-5E) Cell viability, cytotoxicity and apoptosis. RAW 267.4 cells were treated with RANKL, at day 4 they were treated with KBU2046, ZA at 1 or 10 μM (ZA1 or ZA10), the indicated combination, or vehicle (CO) and Triplex assay performed 24, 48 or 72 hours later, per Methods. Data are the mean±SEM (N=4 replicates); ¥, #, * denotes P<0.05 compared to control. (FIGS. 5F-5H) In vivo efficacy. Four cohorts of mice, N=15/cohort, were given intracardiac injections of PC3-luc cells, yielding the following successful injections: N=12 control, N=12 ZA, N=13 KBU2046 and N=13 ZA+KBU2046. Treatment was oral 150 mg KBU2046/kg daily (starting 3 days before IC injection), intraperitoneal ZA 100 μg/kg weekly (starting 1 week before IC injection), with oral and intraperitoneal vehicle controls given as indicated. […] (FIGS. 5C and 5D) Quantification of bone lesions. The macroscopic lesions in the jaw were quantified by direct measurement from CT images, and expressed as the mean±SEM percent of control. Bone density of femurs was measured from CT images, and expressed as the mean±SEM percent of control. * denotes P<0.05 compared to control, and for groups indicated by bars.
We next examined the effect of ZA and KBU2046 on osteoclast cell viability, apoptosis and cytotoxicity. RAW 267.4 cells were treated with RANKL for the duration of the experiment, at day 4 they were then treated with ZA, KBU2046, the combination, or vehicle (for controls), and effect on cell viability, apoptosis and cytotoxicity measured by Triplex assay at 24, 48 and 72 hours after treatment (FIGS. 5C-5E). […]

The structures appear in SMILES notation.

For `O=C1c2ccccc2OCC1c1ccc(F)cc1` (centres unmarked) [KBU2046, 3-(4-fluorophenyl)chroman-4-one], in series [1] (VCaP cells, R1881 treated), the “decrease of PSA expression in R1881 treated cells” value was 36%. The “relative increase of PSA expression in control cells” value in series [1] (VCaP control cells, very low baseline) is reported as 14%. Moreover, in the series with RAW 267.4 cells (compared to control), the cell viability entry is on record as “significant increases” and the cytotoxicity entry is listed as “decreases”. In addition, the apoptosis entry with RAW 267.4 cells (compared to controls) is listed as “significant increase”.
